Reference: PubChem BioAssay (NCI)
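Growth conditions: 96-well plates. Treatment: test compound, 48 hours, 5 concentrations. Analysis: linear interpolation between bracketing concentrations; unreached endpoints set to highest concentration. At the GI50, growth is halved. TGI marks complete inhibition of growth.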

Tests used:
Assay in all cases: NCI anticancer screen, dose series, 48 h
SK-MEL-2 melanoma = tested on: SK-MEL-2 melanoma
MALME-3M melanoma = tested on: MALME-3M melanoma
DU-145 prostate = tested on: DU-145 prostate
MCF7 breast = tested on: MCF7 breast
SW-620 colon = tested on: SW-620 colon
UO-31 renal = tested on: UO-31 renal
KM12 colon = tested on: KM12 colon
A549 NSCLC = tested on: A549 NSCLC
HCT-116 colon = tested on: HCT-116 colon
SR leukemia = tested on: SR leukemia
HT29 colon = tested on: HT29 colon
CAKI-1 renal = tested on: CAKI-1 renal
NCI-H23 lung = tested on: NCI-H23 lung
OVCAR-3 ovarian = tested on: OVCAR-3 ovarian
K-562 leukemia = tested on: K-562 leukemia
HS 578T breast = tested on: HS 578T breast
LOX IMVI melanoma = tested on: LOX IMVI melanoma
OVCAR-8 ovarian = tested on: OVCAR-8 ovarian
OVCAR-5 ovarian = tested on: OVCAR-5 ovarian
UACC-62 melanoma = tested on: UACC-62 melanoma
NCI-H226 lung = tested on: NCI-H226 lung
U251 CNS = tested on: U251 CNS
T-47D breast = tested on: T-47D breast
COLO 205 colon = tested on: COLO 205 colon
HCT-15 colon = tested on: HCT-15 colon
SK-MEL-28 melanoma = tested on: SK-MEL-28 melanoma
SF-539 CNS = tested on: SF-539 CNS
SF-268 CNS = tested on: SF-268 CNS
HL-60(TB) leukemia = tested on: HL-60(TB) leukemia
SF-295 CNS = tested on: SF-295 CNS
CCRF-CEM leukemia = tested on: CCRF-CEM leukemia
NCI-H522 lung = tested on: NCI-H522 lung
786-0 renal = tested on: 786-0 renal
A498 renal = tested on: A498 renal
SNB-75 CNS = tested on: SNB-75 CNS
MDA-MB-231 breast = tested on: MDA-MB-231 breast
HCC-2998 colon = tested on: HCC-2998 colon
OVCAR-4 ovarian = tested on: OVCAR-4 ovarian
TK-10 renal = tested on: TK-10 renal
MOLT-4 leukemia = tested on: MOLT-4 leukemia
RPMI-8226 leukemia = tested on: RPMI-8226 leukemia
MDA-MB-435 = tested on: MDA-MB-435
NCI/ADR-RES ovarian = tested on: NCI/ADR-RES ovarian
UACC-257 melanoma = tested on: UACC-257 melanoma
IGROV1 ovarian = tested on: IGROV1 ovarian
RXF 393 renal = tested on: RXF 393 renal
ACHN renal = tested on: ACHN renal
HOP-62 NSCLC = tested on: HOP-62 NSCLC
EKVX NSCLC = tested on: EKVX NSCLC
SK-MEL-5 melanoma = tested on: SK-MEL-5 melanoma
BT-549 breast = tested on: BT-549 breast
SK-OV-3 ovarian = tested on: SK-OV-3 ovarian
SNB-19 CNS = tested on: SNB-19 CNS
SN12C renal = tested on: SN12C renal
PC-3 prostate = tested on: PC-3 prostate
NCI-H460 lung = tested on: NCI-H460 lung
M14 melanoma = tested on: M14 melanoma

With O=c1c2sccc2n(CC2COc3ccccc3O2)c(=O)n1O (centres undefined) as the compound, how does the GI50 (SK-MEL-2 melanoma) read?
The GI50 was 23.5 µM.

What about the TGI (SK-MEL-2 melanoma) of the same compound?
Its TGI is 80.7 µM.

What about the GI50 (MALME-3M melanoma) of the same compound?
The GI50 was 20 µM.

And the TGI (MALME-3M melanoma)?
The TGI was 81.5 µM.

What about the GI50 (DU-145 prostate) of the same compound?
Its GI50 is 19.8 µM.

What about the TGI (DU-145 prostate) of the same compound?
The TGI was greater than 100 µM.

And the GI50 (MCF7 breast)?
The GI50 was 5.17 µM.

And the TGI (MCF7 breast)?
The TGI was greater than 100 µM.

And the GI50 (SW-620 colon)?
Its GI50 is 3.76 µM.

What about the TGI (SW-620 colon) of the same compound?
Its TGI is greater than 100 µM.

What about the GI50 (UO-31 renal) of the same compound?
The GI50 was 16 µM.

And the TGI (UO-31 renal)?
The TGI was 97.5 µM.

And the GI50 (KM12 colon)?
Its GI50 is 9.21 µM.

What about the TGI (KM12 colon) of the same compound?
Its TGI is 86 µM.

And the GI50 (A549 NSCLC)?
Its GI50 is 23.3 µM.

What about the TGI (A549 NSCLC) of the same compound?
The TGI was greater than 100 µM.

And the GI50 (HCT-116 colon)?
Its GI50 is 6.54 µM.

And the TGI (HCT-116 colon)?
Its TGI is 29.2 µM.

What about the GI50 (SR leukemia) of the same compound?
The GI50 was 8.1 µM.

What about the TGI (SR leukemia) of the same compound?
The TGI was greater than 100 µM.

What about the GI50 (HT29 colon) of the same compound?
Its GI50 is 24.1 µM.

What about the TGI (HT29 colon) of the same compound?
The TGI was greater than 100 µM.

What about the GI50 (CAKI-1 renal) of the same compound?
The GI50 was 20.1 µM.

And the TGI (CAKI-1 renal)?
The TGI was 97.3 µM.

And the GI50 (NCI-H23 lung)?
The GI50 was 6.88 µM.

And the TGI (NCI-H23 lung)?
The TGI was 34.4 µM.

And the GI50 (OVCAR-3 ovarian)?
The GI50 was 10.4 µM.

And the TGI (OVCAR-3 ovarian)?
The TGI was 44.9 µM.

What about the GI50 (K-562 leukemia) of the same compound?
Its GI50 is 4.1 µM.

And the TGI (K-562 leukemia)?
Its TGI is greater than 100 µM.

And the GI50 (HS 578T breast)?
The GI50 was 15.1 µM.

And the TGI (HS 578T breast)?
The TGI was greater than 100 µM.

What about the GI50 (LOX IMVI melanoma) of the same compound?
Its GI50 is 6.45 µM.

And the TGI (LOX IMVI melanoma)?
The TGI was greater than 100 µM.

And the GI50 (OVCAR-8 ovarian)?
The GI50 was 30.5 µM.

What about the TGI (OVCAR-8 ovarian) of the same compound?
Its TGI is greater than 100 µM.

What about the GI50 (OVCAR-5 ovarian) of the same compound?
The GI50 was 40 µM.

What about the TGI (OVCAR-5 ovarian) of the same compound?
The TGI was greater than 100 µM.

And the GI50 (UACC-62 melanoma)?
Its GI50 is 14.6 µM.

And the TGI (UACC-62 melanoma)?
The TGI was 46.4 µM.

And the GI50 (NCI-H226 lung)?
Its GI50 is 24.6 µM.

And the TGI (NCI-H226 lung)?
Its TGI is 83.6 µM.

And the GI50 (U251 CNS)?
The GI50 was 7.52 µM.

What about the TGI (U251 CNS) of the same compound?
The TGI was greater than 100 µM.

What about the GI50 (T-47D breast) of the same compound?
Its GI50 is 16.8 µM.

And the TGI (T-47D breast)?
Its TGI is greater than 100 µM.

And the GI50 (COLO 205 colon)?
The GI50 was 36.8 µM.

What about the TGI (COLO 205 colon) of the same compound?
The TGI was greater than 100 µM.

What about the GI50 (HCT-15 colon) of the same compound?
Its GI50 is 4.53 µM.

What about the TGI (HCT-15 colon) of the same compound?
The TGI was greater than 100 µM.

What about the GI50 (SK-MEL-28 melanoma) of the same compound?
The GI50 was 14.5 µM.

And the TGI (SK-MEL-28 melanoma)?
Its TGI is greater than 100 µM.

What about the GI50 (SF-539 CNS) of the same compound?
Its GI50 is 15.3 µM.

And the TGI (SF-539 CNS)?
Its TGI is greater than 100 µM.

And the GI50 (SF-268 CNS)?
Its GI50 is 13.6 µM.

What about the TGI (SF-268 CNS) of the same compound?
Its TGI is greater than 100 µM.

What about the GI50 (HL-60(TB) leukemia) of the same compound?
The GI50 was 16.9 µM.

And the TGI (HL-60(TB) leukemia)?
The TGI was 44.7 µM.

What about the GI50 (SF-295 CNS) of the same compound?
The GI50 was 9.51 µM.

What about the TGI (SF-295 CNS) of the same compound?
Its TGI is greater than 100 µM.

What about the GI50 (CCRF-CEM leukemia) of the same compound?
Its GI50 is 7 µM.

And the TGI (CCRF-CEM leukemia)?
The TGI was 94.4 µM.

What about the GI50 (NCI-H522 lung) of the same compound?
Its GI50 is 6.2 µM.

What about the TGI (NCI-H522 lung) of the same compound?
Its TGI is greater than 100 µM.

And the GI50 (786-0 renal)?
Its GI50 is 41.7 µM.

And the TGI (786-0 renal)?
Its TGI is greater than 100 µM.

What about the GI50 (A498 renal) of the same compound?
The GI50 was 13.3 µM.

What about the TGI (A498 renal) of the same compound?
Its TGI is 38.1 µM.

And the GI50 (SNB-75 CNS)?
The GI50 was 3.81 µM.

And the TGI (SNB-75 CNS)?
The TGI was 56 µM.

What about the GI50 (MDA-MB-231 breast) of the same compound?
Its GI50 is 39 µM.

And the TGI (MDA-MB-231 breast)?
The TGI was greater than 100 µM.

And the GI50 (HCC-2998 colon)?
The GI50 was 7.6 µM.

And the TGI (HCC-2998 colon)?
The TGI was greater than 100 µM.

What about the GI50 (OVCAR-4 ovarian) of the same compound?
Its GI50 is 13.9 µM.

What about the TGI (OVCAR-4 ovarian) of the same compound?
The TGI was 98.7 µM.

And the GI50 (TK-10 renal)?
Its GI50 is 30.9 µM.

And the TGI (TK-10 renal)?
Its TGI is greater than 100 µM.

What about the GI50 (MOLT-4 leukemia) of the same compound?
Its GI50 is 21.3 µM.

And the TGI (MOLT-4 leukemia)?
The TGI was greater than 100 µM.

And the GI50 (RPMI-8226 leukemia)?
Its GI50 is 3.9 µM.

And the TGI (RPMI-8226 leukemia)?
The TGI was 24.5 µM.

And the GI50 (MDA-MB-435)?
The GI50 was 23.9 µM.

What about the TGI (MDA-MB-435) of the same compound?
The TGI was greater than 100 µM.

And the GI50 (NCI/ADR-RES ovarian)?
Its GI50 is 23 µM.

And the TGI (NCI/ADR-RES ovarian)?
Its TGI is greater than 100 µM.

And the GI50 (UACC-257 melanoma)?
The GI50 was 22.4 µM.

What about the TGI (UACC-257 melanoma) of the same compound?
The TGI was greater than 100 µM.

And the GI50 (IGROV1 ovarian)?
The GI50 was 15.4 µM.

What about the TGI (IGROV1 ovarian) of the same compound?
The TGI was greater than 100 µM.

What about the GI50 (RXF 393 renal) of the same compound?
The GI50 was 3 µM.

What about the TGI (RXF 393 renal) of the same compound?
Its TGI is 9.7 µM.

What about the GI50 (ACHN renal) of the same compound?
Its GI50 is 20.5 µM.

What about the TGI (ACHN renal) of the same compound?
The TGI was greater than 100 µM.

What about the GI50 (HOP-62 NSCLC) of the same compound?
The GI50 was 8.41 µM.

What about the TGI (HOP-62 NSCLC) of the same compound?
Its TGI is greater than 100 µM.

What about the GI50 (EKVX NSCLC) of the same compound?
The GI50 was 35.3 µM.

And the TGI (EKVX NSCLC)?
The TGI was greater than 100 µM.

And the GI50 (SK-MEL-5 melanoma)?
Its GI50 is 17.1 µM.

What about the TGI (SK-MEL-5 melanoma) of the same compound?
Its TGI is 61.1 µM.

What about the GI50 (BT-549 breast) of the same compound?
The GI50 was 12.1 µM.

What about the TGI (BT-549 breast) of the same compound?
The TGI was greater than 100 µM.

And the GI50 (SK-OV-3 ovarian)?
Its GI50 is 32.8 µM.

And the TGI (SK-OV-3 ovarian)?
The TGI was greater than 100 µM.

What about the GI50 (SNB-19 CNS) of the same compound?
The GI50 was 12.8 µM.

And the TGI (SNB-19 CNS)?
The TGI was greater than 100 µM.

What about the GI50 (SN12C renal) of the same compound?
Its GI50 is 11.1 µM.

What about the TGI (SN12C renal) of the same compound?
The TGI was greater than 100 µM.

And the GI50 (PC-3 prostate)?
The GI50 was 18.2 µM.

What about the TGI (PC-3 prostate) of the same compound?
Its TGI is greater than 100 µM.

And the GI50 (NCI-H460 lung)?
The GI50 was 4.66 µM.

And the TGI (NCI-H460 lung)?
Its TGI is 41.8 µM.

What about the GI50 (M14 melanoma) of the same compound?
The GI50 was 21.2 µM.

What about the TGI (M14 melanoma) of the same compound?
Its TGI is greater than 100 µM.
